Assay results from the METLIN SMRT retention time set (Domingo-Almenara et al. 2019).

Assay: gradient 5% acetonitrile 3 min, to 50% in 2 min, to 85% in 15 min, held 3 min, 100 µL/min
Settings: column: Zorbax Extend-C18 2.1 x 50 mm; eluents: water / acetonitrile, 0.1% formic acid
Method in brief: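 The system's dead and dwell volumes were 40 μL and 900 μL, with a Zorbax Extend-C18 column (2.1 × 50 mm, 1.8 μm) run at 100 μL/min in water and acetonitrile containing 0.1% formic acid each. Pure standards were analyzed in mixtures of ~100 molecules by HPLC–quadrupole time-of-flight mass spectrometry in positive and negative ionization mode. Retention time was assigned from computationally picked, manually inspected adduct peaks.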

Row | RP-LC retention time [s] | SMILES
1 | 856 | Cc1ccc(C2NC(=O)N(CC(=O)Nc3ccc4c(c3)CCC4)C3=C2C(=O)OC3)cc1 (stereo not given)
2 | 765 | O=C1NC2(CCN(C(=O)Nc3ccccc3Cl)CC2)Oc2ccccc21
3 | 610 | CC1CCCCN1CCNC(=O)CN1CCN(C(=O)Nc2ccc(Br)cc2)CC1=O (stereo not given)
4 | 578 | COc1ccc(N2CCN(C(=O)c3ccc(=O)n(CCN4CCOCC4)c3)CC2)cc1
5 | 714 | COc1cccc(CNS(=O)(=O)c2ccc3c(c2)CCCC(=O)N3)c1
6 | 1070 | CCn1cc(-c2ccccc2)cc1C(=O)NCC(C)C
7 | 938 | Cc1ccc2c(c1)cc(S(=O)(=O)c1ccccc1)c(=O)n2CC(=O)NCCC(C)C
8 | 1260 | CCOc1ccc(-c2cc3c(=O)n(Cc4nc(-c5ccc(C)c(C)c5)no4)ncn3n2)cc1
9 | 746 | CNC(=O)c1cnn(-c2ccc(-c3nc(C4CC4)no3)cn2)c1C
10 | 756 | O=C(CCc1c(-c2ccc(Cl)cc2)nc2ccccn12)NCCC1=CCCCC1
11 | 954 | CS(=O)(=O)N1CCC(C(=O)Nc2cccc(Cl)c2)Oc2ccccc21 (stereo not given)
12 | 564 | O=C1NCCN2CC3(CCN(C(=O)Nc4ccccc4F)CC3)CC12 (stereo not given)
13 | 741 | Cc1ccc(C(C)NC(=O)C2CCN(c3cnc4nccnc4c3)CC2)c(C)c1 (stereo not given)
14 | 942 | CCn1cc(-c2nc(C)c(C(=O)N3CCCCCC3)s2)c2cccnc21
15 | 608 | Fc1ccc(CN2CCc3nc(N4CCOCC4)ncc3C2)cc1
16 | 731 | COC(=O)c1ccc(NS(=O)(=O)c2cc3n(c2)CCN(C(C)C)C3=O)cc1
17 | 596 | Cc1ccccc1NC(=O)Cn1c(N)nc(C)c(C)c1=O
18 | 796 | CN1CCCN(C(c2ccccc2)c2ccc(Cl)cc2)CC1 (stereo not given)
19 | 733 | CCCNC(=O)C1CCCN(c2ccc(SCC(=O)Nc3ccc(Cl)cc3F)nn2)C1 (stereo not given)
20 | 1010 | Cc1ccc(-c2nc(Cn3nnc(C(=O)NCc4ccc(C)o4)c3C)c(C)o2)cc1
21 | 931 | Cc1ccc(N2CCC(NC(=O)Nc3cc(C)cc(C)c3)C2=O)cc1 (stereo not given)
22 | 1150 | COc1ccccc1-c1nnc(-c2ccc(Cl)c(S(=O)(=O)N3CCCCCC3)c2)o1
23 | 1200 | Cc1ccc(CNC(=O)c2cc3sccc3n2Cc2ccc(Cl)cc2)cc1

Row | RP-LC retention time [s] | SMILES
24 | 1200 | CCN(Cc1ccccc1)S(=O)(=O)c1cc(-c2nc(C)cs2)sc1C
25 | 1050 | CCc1cccc(NC(=O)N2CCc3cn(CC)c4cccc(c34)C2)c1
26 | 639 | N#Cc1ccccc1NC(=O)c1ccc(N2C(=O)CCC2=O)cc1
27 | 1200 | COc1ccc(-c2nnc3sc(-c4ccc(N(C)C)cc4)nn23)cc1
28 | 586 | CCc1nnc(NC(=O)CSc2nccn2Cc2ccc3c(c2)OCO3)s1
29 | 722 | COCc1c(C(=O)O)nnn1-c1ccc(C)cc1F
30 | 1030 | COc1ccc(-c2ncc3c(n2)CCN(C(=O)c2ccc(C)c(C)c2)C3)cc1
31 | 853 | Cc1ccc2c(c1)N(C(=O)Cn1ccc3ccn(Cc4ccccc4)c3c1=O)CCO2
32 | 712 | Cc1ccc(S(=O)(=O)n2ccn(C(=O)C(C)Oc3ccccc3)c2=O)cc1 (stereo not given)
33 | 610 | COc1ccc(NC(=O)c2cn3c(n2)CCCC3)c(OC)c1
34 | 917 | CN(Cc1ccco1)C(=O)c1ccc2ccnc(N3CCN(c4ccc(Cl)cc4)CC3)c2c1
35 | 705 | CCc1cccc(C)c1NC(=O)Cn1nc2c3ccccc3ncn2c1=O
36 | 731 | Cc1ccc(C(=O)NCc2nc(-c3ccc4c(c3)nnn4C)no2)cc1
37 | 925 | Cc1ccc(NS(=O)(=O)c2ccc(-c3nnc(C4CCC4)o3)o2)c(F)c1
38 | 840 | CCS(=O)(=O)c1ccc(-c2ccc(NC(=O)c3cc(Cl)ccc3Cl)cc2)nn1
39 | 733 | O=C(Nc1nnc(-c2ccc(Cl)s2)o1)c1ccc2ncsc2c1
40 | 547 | Cc1ccnc(N2CCC(C(=O)N3CCC(C(N)=O)(N4CCCCC4)CC3)CC2)n1
41 | 848 | O=C(Cn1nc2c3sc(N4CCCCC4)nc3ncn2c1=O)Nc1ccc(Br)cc1
42 | 604 | CCCCCCNCc1ccc2c(c1)n(C)c(=O)n2C
43 | 910 | Cc1ccc(S(=O)(=O)N2CCC(n3c(-c4ccoc4)nc4cccnc43)C2)cc1F (stereo not given)
44 | 1220 | Cc1ccc(-n2nc(C)c3sc(N4CCCC(C(=O)Nc5ccccc5C)C4)nc32)cc1 (stereo not given)
45 | 552 | O=C(CN1CCN(Cc2ccc(F)cc2)C1=O)NCCc1ccccn1
46 | 896 | COc1cccc(-c2noc(C3CCCN3C(=O)Nc3ccc4c(c3)OCO4)n2)c1 (stereo not given)

Row | RP-LC retention time [s] | SMILES
47 | 940 | COc1ccc(NC(=O)C2CCN(S(=O)(=O)c3c(C)nn(-c4ccccc4)c3C)CC2)c(OC)c1
48 | 958 | Cc1ccc(NC(=O)C2CCCN(c3ncnc4c3nc3n4CCCCC3)C2)cc1Cl (stereo not given)
49 | 1170 | COc1cccc(-c2csc(-c3nnn(-c4ccc(Cl)cc4)c3N)n2)c1
50 | 1230 | CC(C)Cc1csc(-c2csc(S(=O)(=O)Nc3cccc(Cl)c3)c2)n1
51 | 698 | CNC(=O)c1ccc2c(c1)CCCN2C(=O)c1ccc(F)cc1
52 | 834 | CN(CC(=O)N1CCN(c2cccc(Cl)c2)CC1)S(=O)(=O)c1c[nH]c(C(=O)N2CCCC2)c1
53 | 738 | O=C(Cn1ccn2nc(-c3ccccc3)c(CO)c2c1=O)NCc1ccc2c(c1)OCO2
54 | 815 | CCCC(=O)Nc1cnc(-c2ccccc2)nc1
55 | 935 | CCOc1ccc(NC(=O)Nc2nccn(-c3ccc(OC)cc3)c2=O)cc1
56 | 890 | O=C(CC1CCCC1)N1CCCCC1c1nncn1Cc1ccccc1 (stereo not given)
57 | 1010 | Cc1ccccc1C(=O)Nc1nc(-c2ccc3c(c2)N(C)C(=O)C(C)O3)cs1 (stereo not given)
58 | 622 | COC[C@@H]1CN(C(=O)Cn2nc(C(F)(F)F)cc2C)C[C@H]1C(N)=O
59 | 574 | CCOCCCNC(=O)CC1CCN(c2ccnc(OC)n2)CC1
60 | 666 | O=C(Nc1ccccc1F)Nc1c(-c2ccccc2)nc2ccccn12
61 | 924 | CCc1ccc(OCc2nc(CCN(C)C(=O)c3cccs3)no2)cc1
62 | 821 | Cc1ccc(CNC(=O)N2CC(n3cc(COc4ccc(F)cc4)nn3)C2)cc1
63 | 748 | O=C1NCCOCCN(S(=O)(=O)c2cccc(F)c2)[C@H]2CCC[C@@H]12
64 | 728 | Cc1ccc(NC(=O)N2CCCC2c2nncn2C2CCCC2)cc1F (stereo not given)
65 | 934 | Cc1cccc(-c2c3c(=O)n(C)c(=O)n(C)c3c3n2CCOC3c2ccco2)c1 (stereo not given)
66 | 832 | CCOc1ccc(NC(=O)Cn2c(=O)n(-c3ccccc3)c(=O)c3c2cc(C)n3C)cc1
67 | 1150 | Cc1cc(C)cc(-c2nnc(Cc3nc(-c4cccc(F)c4)no3)o2)c1
68 | 955 | CCCS(=O)(=O)N1CC(=O)N(c2cccc(Cl)c2)C(C)(C(=O)NC2CCCCC2)C1 (stereo not given)
69 | 724 | CCOCc1nc(C2CCCN2C(=O)c2ccsc2)no1 (stereo not given)

Row | RP-LC retention time [s] | SMILES
70 | 856 | O=C(NC1CCCC1)C1c2ccccc2CC(=O)N1Cc1ccccc1 (stereo not given)
71 | 770 | Cn1cc(S(=O)(=O)N2CCC(C(=O)NC3CCCCCC3)CC2)cc1C(=O)N1CCCC1
72 | 692 | COc1ccc(-c2nc3ncccn3c2NCc2ccc(F)cc2)cc1OC
73 | 888 | Cc1cccc(N(C)C(=O)Cn2c(=O)n(-c3ccc(F)cc3)c(=O)c3c2cc(C)n3C)c1
74 | 886 | O=C(NC(c1ccccc1)c1ccccc1)N1CCN(CC(F)(F)F)CC1
75 | 692 | CSc1ncc2[nH]c(C(O)c3ccccc3)nc2n1 (stereo not given)
76 | 1260 | Clc1cccc(CSc2nnc(-c3ccc(Br)cc3)o2)c1
77 | 782 | O=C1CCCc2cc(S(=O)(=O)N3CCCC3C(=O)NC3CCCCCC3)ccc2N1 (stereo not given)
78 | 706 | CCN(CC)C(=O)C1c2cc(OC)c(OC)cc2C(=O)N(C)C1c1ccc(OC)c(OC)c1 (stereo not given)
79 | 642 | CC(C)Cn1c(=O)c(C(=O)NCCCN2CCCCC2)nc2cccnc21
80 | 636 | CCOC(=O)N1CCN(C(=O)c2cc(S(=O)(=O)N3CCOCC3)ccc2OC)CC1
81 | 664 | c1cc(-c2noc(-c3ccsc3)n2)cc(N2CCCC2)n1
82 | 654 | Oc1c(C(Nc2nccs2)c2ccc(F)cc2)ccc2cccnc12 (stereo not given)
83 | 1140 | Cc1ccc(F)cc1NC(=O)c1cc(C2CC2)n2nccc2n1
84 | 887 | COc1ccc(NC(=O)C2=C(C)C(=O)OC23CCCCCC3)cc1OC
85 | 1050 | Cc1cccc(-c2noc(C3CCCN3C(=O)Nc3cccc(F)c3)n2)c1 (stereo not given)
86 | 873 | Cc1cc(NC(=O)CN2C(=O)NC(c3ccc(Cl)cc3)C3=C2COC3=O)ccc1Br (stereo not given)
87 | 578 | CCC(=O)N1CCN(c2nc3c(s2)CC(C(=O)O)CC3)CC1 (stereo not given)
88 | 816 | COc1cc2ncc(C#N)c(N3CCC(C(=O)Nc4cccc(Cl)c4)CC3)c2cc1OC
89 | 720 | CN1CCN(S(=O)(=O)c2c[nH]c(=O)[nH]c2=O)CC1
90 | 622 | O=C(NCc1ccc(F)cc1)C1CCCN(c2ccc(-c3ccco3)nn2)C1 (stereo not given)
